Paper PMC3753236, “Glucocorticosteroids in Nano-Sterically Stabilized Liposomes Are Efficacious for Elimination of the Acute Symptoms of Experimental Cerebral Malaria” (PLoS ONE, 2013)

Tests used:
[1] = test system: non-chloroquine resistant P. falciparum; assay: P. falciparum culture, 3H-hypoxanthine incorporation; type: cell-based, Plasmodium falciparum; details: at concentrations up to 33 µM
Protocol: The parasite was grown in a human red blood cell culture (RPMI 1640, 7.5% bicarbonate, 50 µM hypoxanthine, 50 µg/ml gentamycin, and 7.5% human plasma) at 1% hematocrit and 2% parasitemia. Cultures containing predominantly ring forms were used; synchronization of the culture was performed if trophozoites represented more than 1–2% of the various developmental stages. Briefly, the culture was centrifuged and the supernatant replaced by 5% (isotonic) sorbitol. After 5 minutes at 37°C the culture was centrifuged again and the supernatant replaced by culture medium to obtain a final 1% hematocrit.
Drug testing was performed in 96-well microtiter plates incubated at 37°C in a 5% O2, 5% CO2, and 90% N2 gas mixture for 72 hours. After 48 hours, 1 µCi ^3H-hypoxanthine was added to each well and the plates were read the next day using a scintillation counter.

[2] = test system: Plasmodium berghei ANKA (PbAus); assay: Late-stage treatment of ECM followed by artemisone, PbAus-infected C57Bl/6 mice
Protocol: Plasmodium berghei ANKA (PbA; PbA MRA-311, CDC, Atlanta, GA, USA) was maintained in vivo by serial transfer of parasitized erythrocytes (PE) from infected to naïve mice. Experiments were also performed using a second strain of PbA, similarly maintained, and designated PbAus in the text (courtesy of Prof. G. Grau, University of Sydney, Australia).
Parasitemia was monitored by thin blood smears prepared from tail blood. These were stained with a 25% Giemsa solution, examined under a light microscope, and parasitemia determined as the percent of infected red blood cells per 10,000 erythrocytes. Disease severity was determined according to scoring of neurological symptoms and changes in weight and temperature, as previously described […] Parasitemias above 20% and the absence of neurological symptoms indicated severe anemic malaria.
For early ECM treatment, injections were given on days 3, 5, 7, and 9 p.i; for late treatment, treatment was given every other day, starting on day 5 p.i. for a total of at least two injections. Infected, non-treated control mice were injected with 5% dextrose or empty nSSL. Clinical signs and parasitemias were monitored and disease severity scored as described […] At each time-point, at least 3 mice from each group were chosen at random, deeply anesthetized, and brains were removed following intracardial perfusion (using saline, if organs were destined for real-time (rt)PCR analysis, or saline/formalin, if organs were destined for histopathological analysis). Organs destined for rtPCR analysis were snap-frozen in liquid nitrogen and stored at −80°C until use. Organs destined for immunohistology were immediately immersed in cryoprotectant solution (see below).

[3] = test system: PbAus-infected C57Bl/6 mice; assay: Brain hemorrhages, H&E staining; type: in vivo; details: treatment days 3, 5, 7, 9 p.i.
Protocol: H&E staining was performed by incubation of slides in Sigma's Accustain hematoxylin solution followed by staining in eosin solution (2% eosin, 1% phloxine and 0.5% acetic acid in 95% ethanol), and mounting in Hydromount (National Diagnostics, Cherry Hill, NJ, USA).

[4] = test system: microglia; assay: Microglial activation, IBA-1 immunohistology; type: in vivo, C57Bl/6 mice; details: IBA-1, normalized to non-infected mice
Protocol: (§1) Sections were thaw-mounted onto on poly-L-lysine-coated slides and stored at -80°C until use.
Slides were thawed by sequential incubation at −20°C and 5°C (10 minutes at each temperature) and incubated in blocking solution consisting of 20% of 5% BSA and 80% of 5% NGS, in a moist environment at room temperature (RT). After one hour the blocking solution was removed and sections incubated overnight at 5°C with primary antibody diluted 1∶200 in blocking solution. Microglia were stained using rabbit anti-mouse ionized calcium binding adaptor molecule 1 (IBA-1) (Wako Chemicals, Richmond, VA, USA); astrocytes were stained using rabbit anti-bovine glial fibrillary acidic protein (GFAP) (cross-reactive to mouse; LifeSpan Biosciences, Seattle, WA, USA). After washing in PBS, slides were incubated for one hour at RT with secondary antibody, Cy3-AffiniPure donkey anti-rabbit IgG H+L (diluted 1∶200 in PBS; Jackson Immunoresearch Laboratories, West Grove, PA, USA), followed by an additional wash. […] At least three sections per brain (6 fields each) were examined, and the total number of astrocytes and microglia counted. […] Images were visualized and analyzed with ImagePro analysis software: quantification of relative fluorescence was performed using the integrated optical density (IOD) parameter. […]

[5] = test system: astrocytes; assay: Astrocyte activation, GFAP immunohistology; type: in vivo, C57Bl/6 mice; details: for Astrocytes, normalized IOD: GFAP, normalized to non-infected mice
Protocol: as §1
Slides were thawed by sequential incubation at −20°C and 5°C (10 minutes at each temperature) and incubated in blocking solution consisting of 20% of 5% BSA and 80% of 5% NGS, in a moist environment at room temperature (RT). After one hour the blocking solution was removed and sections incubated overnight at 5°C with primary antibody diluted 1∶200 in blocking solution. Microglia were stained using rabbit anti-mouse ionized calcium binding adaptor molecule 1 (IBA-1) (Wako Chemicals, Richmond, VA, USA); astrocytes were stained using rabbit anti-bovine glial fibrillary acidic protein (GFAP) (cross-reactive to mouse; LifeSpan Biosciences, Seattle, WA, USA). After washing in PBS, slides were incubated for one hour at RT with secondary antibody, Cy3-AffiniPure donkey anti-rabbit IgG H+L (diluted 1∶200 in PBS; Jackson Immunoresearch Laboratories, West Grove, PA, USA), followed by an additional wash. After addition of 4′,6-diamidino-2-phenylindole (DAPI) in mounting solution (Dapi-Fluoromount-G, Southern Biotech, Birmingham, AL, USA) the slides were mounted with coverslips and examined by fluorescent microscopy. At least three sections per brain (6 fields each) were examined, and the total number of astrocytes and microglia counted. High-resolution images of stained slides were photographed using a laser confocal scanning microscope. Images were visualized and analyzed with ImagePro analysis software: quantification of relative fluorescence was performed using the integrated optical density (IOD) parameter. IOD values of infected non-treated or treated mice were normalized to non-infected mouse values.

[6] = Biodistribution of BMS administered as free BMS or nSSL-BMS; details: infected mice; for concentration at 1 h / concentration at 6 h / concentration at 24 h / concentration at 48 h: C57Bl/6 Ola-Hsd, mouse, iv, µg drug/g organ; for concentration at 1 h: 1 h post-injection; for concentration at 48 h: 48 h post-injection
Protocol: The total and intraliposomal (after treatment with Dowex 2X-800 anion exchanger, pH 5, which binds all free drug) concentrations of MPS or BMS and their hydrolysis products were quantified using HPLC [5]. Liposome size distribution, phospholipid concentration, drug to lipid ratio, and level of free drug (i.e. percent drug encapsulated) were determined (see Table 1) as previously described.
At 1 h, 6 h, 24 h, and 48 h post-injection, mice (n = 3 per group) were anesthetized and sacrificed for organ collection. Organs were pooled and homogenized in 5% dextrose, followed by spiking with hydrocortisone, which served as an internal standard for extraction and sample processing. The homogenates were extracted as described elsewhere. Quantification of BMS and its derivatives was performed by HPLC as described above.

[7] = brain, 20 mg/kg, BMS in brain, 20 mg/kg i.v. on day 6 p.i.
[8] = heart, 20 mg/kg, BMS in heart, 20 mg/kg i.v. on day 6 p.i.
[9] = liver, 20 mg/kg, BMS in liver, 20 mg/kg i.v. on day 6 p.i.
[10] = lungs, 20 mg/kg, BMS in lungs, 20 mg/kg i.v. on day 6 p.i.

C[C@H]1C[C@H]2[C@@H]3CCC4=CC(=O)C=C[C@]4(C)[C@@]3(F)[C@@H](O)C[C@]2(C)[C@@]1(O)C(=O)COC(=O)CCC(=O)O [BMS, β-methasone hemisuccinate]
IC50 (effect against cultured P. falciparum) [1]: no effect ^*
IC50 (effect against cultured P. falciparum) ([1]; listed as Free BMS): not effective
Mice that died of acute toxicity ([2]; 20 mg/kg on days 5, 7, 9 p.i., upon second or third injection): 6/10
Average clinical score on day 7 p.i. ([2]; 20 mg/kg, treatment started day 5 p.i.): 4.2±2.2
Number of hemorrhages ([3]; day 5 p.i.): 9±1
Number of hemorrhages ([3]; day 9 p.i.): 9±2
Microglia, normalized IOD ([4]; day 5 p.i.): 12±1
Microglia, normalized IOD ([4]; day 9 p.i.): 10±0.05
Astrocytes, normalized IOD ([5]; day 5 p.i.): 1.7±0.9
Astrocytes, normalized IOD ([5]; day 9 p.i.): 1.1±0.1
Astrocyte number of primary processes ([5]; day 9 p.i., n = 23, 18 cells): 10±2
concentration at 1 h [6, 7]: 400 ng/g
concentration at 6 h ([6]; brain, 20 mg/kg, BMS in brain, 20 mg/kg i.v. on day 6 p.i., 6 h post-injection): 100 ng/g
concentration at 24 h ([6]; brain, 20 mg/kg, BMS in brain, 20 mg/kg i.v. on day 6 p.i., 24 h post-injection): 100 ng/g
concentration at 48 h [6, 7]: 100 ng/g
concentration at 1 h [6, 8]: 2900 ng/g
concentration at 6 h ([6]; heart, 20 mg/kg, BMS in heart, 20 mg/kg i.v. on day 6 p.i., 6 h post-injection): 2400 ng/g
concentration at 24 h ([6]; heart, 20 mg/kg, BMS in heart, 20 mg/kg i.v. on day 6 p.i., 24 h post-injection): ~3000 ng/g
concentration at 48 h [6, 8]: 3300 ng/g
concentration at 1 h [6, 9]: 2400 ng/g
concentration at 6 h ([6]; liver, 20 mg/kg, BMS in liver, 20 mg/kg i.v. on day 6 p.i., 6 h post-injection): 3400 ng/g
concentration at 24 h ([6]; liver, 20 mg/kg, BMS in liver, 20 mg/kg i.v. on day 6 p.i., 24 h post-injection): 400 ng/g
concentration at 48 h [6, 9]: 400 ng/g
concentration at 1 h [6, 10]: 1600 ng/g
concentration at 6 h ([6]; lungs, 20 mg/kg, BMS in lungs, 20 mg/kg i.v. on day 6 p.i., 6 h post-injection): 2400 ng/g
concentration at 24 h ([6]; lungs, 20 mg/kg, BMS in lungs, 20 mg/kg i.v. on day 6 p.i., 24 h post-injection): 2000 ng/g
concentration at 48 h [6, 10]: 2000 ng/g
BMS in lungs, µg drug/g organ ([6]; 20 mg/kg i.v. on day 6 p.i., 24 h post-injection, listed as Free BMS, 20 mg/kg): 1.9 µg drug/g organ
Brain to liver BMS concentration ratio ([6]; 6 h post-injection): 0.03
